Literature values as cited in patent publication US20050192267A1, “Use of targeted oxidative therapeutic formulation in treatment of viral diseases” (priority 2004, published 2005).

Key:
[1] = test system: peroxide-sensitive E. coli; details: infused into the blood of infected rabbits
E. coli = details: increasing concentration of peroxide ex-vivo in rabbit or human blood
Hepatitis C = details: chronic Hepatitis C; used alone

For `OO` [hydrogen peroxide, Hydrogen peroxide], the bactericidal effect [1] is listed as “no bactericidal effect” and the direct bactericidal activity (E. coli) is listed as “no evidence of direct bactericidal activity”.
In the case of `NC(=O)c1ncn([C@@H]2O[C@H](CO)[C@@H](O)[C@H]2O)n1` [Ribavirin, ribavirin], the effectiveness of treatment (Hepatitis C) is listed as “does not appear to be effective”.
